Measured values published in patent US8299056B2 (Signal Pharmaceuticals, LLC, priority 2008, dated 2012).
Where two headings read alike, the source gives them in different places.

Biological target: T1, Syk (Homo sapiens, UniProt P43405)
T1 construct: purchased Carna Biosciences
Assay: Syk HTRF assay
Type: biochemical
Outline: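 Read-out is the 665 nm/615 nm time-resolved fluorescence ratio after EDTA stop and Eu-anti-phosphotyrosine plus streptavidin-DyLight 647 detection. Reaction ran 1 h at room temperature with start mix of 87.5 μM ATP and 80 nM substrate peptide in pH 7.6 HEPES/MgCl2 buffer.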

[1] = IC50 activity level, read-out: Activity Level
[2] = read-out: Activity Level (Syk HTRF assay IC50)
[3] = activity levels A-D, read-out: Activity Level (IC50 in the Syk HTRF assay)

Row | SMILES | IC50 [1] [nM] | IC50 [2] [nM] | IC50 [3] [nM]
1 | c1cc(N[C@@H]2CCCNC2)n2nc(Nc3ccc4c(c3)CNC4)nc2c1 [Example 449] | 0.005 to 250 | – | –
2 | O=C1CN(Cc2cccc3nc(Nc4ccc(N5CCC(O)CC5)nc4)nn23)CCN1 [Example 221, 4-((2-(6-(4-hydroxypiperidin-1-yl)pyridin-3-ylamino)-[1,2,4]triazolo[1,5-a]pyridin-5-yl)methyl)piperazin-2-one] | – | – | 500 to 1000
3 | Cc1n[nH]c2cc(Nc3nc4cccc(Cc5cc[nH]c(=O)c5)n4n3)ccc12 [Example 183, 4-((2-(3-methyl-1H-indazol-6-ylamino)-[1,2,4]triazolo[1,5-a]pyridin-5-yl)methyl)pyridin-2(1H)-one] | – | 0.005 to 250 | –
4 | NC(=O)c1cc(Nc2nc3cccc(N[C@H]4CC[C@@H](O)CC4)n3n2)ccn1 [Example 255, cis-4-(5-(4-hydroxycyclohexylamino)-[1,2,4]triazolo[1,5-a]pyridin-2-ylamino)picolinamide] | – | – | 1000 to 10000
5 | CN1C(=O)C(C)(C)c2ccc(Nc3nc4cccc(CC5CCOCC5)n4n3)cc21 [Example 143, 1,3,3-trimethyl-6-(5-((tetrahydro-2H-pyran-4-yl)methyl)-[1,2,4]triazolo[1,5-a]pyridin-2-ylamino)indolin-2-one] | – | 0.005 to 250 | –
6 | Nc1n[nH]c2cc(Nc3nc4cccc(N[C@H]5CCCNC5)n4n3)ccc12 [Example 451, (S)-N^2-(3-amino-1H-indazol-6-yl)-N^5-(piperidin-3-yl)-[1,2,4]triazolo[1,5-a]pyridine-2,5-diamine] | 0.005 to 250 | – | –
7 | O=C1NCc2cc(Nc3nc4cccc(N[C@H]5CC[C@@H](O)CC5)n4n3)ccc21 [Example 253, cis-5-(5-(4-hydroxycyclohexylamino)-[1,2,4]triazolo[1,5-a]pyridin-2-ylamino)isoindolin-1-one] | – | – | 0.005 to 250
8 | Cc1cc(Nc2nc3cccc(N[C@H]4CC[C@@H](O)CC4)n3n2)ccc1F [Example 320, cis-4-(2-(4-fluoro-3-methylphenylamino)-[1,2,4]triazolo[1,5-a]pyridin-5-ylamino)cyclohexanol] | – | – | 0.005 to 250
9 | O[C@H]1CC[C@@H](Nc2cccc3nc(Nc4ccc(N5CCOCC5)nc4)nn23)CC1 [Example 313, cis-4-(2-(6-morpholinopyridin-3-ylamino)-[1,2,4]triazolo[1,5-a]pyridin-5-ylamino)cyclohexanol] | – | – | 0.005 to 250

Other lines, results leading:

Row | IC50 [1] [nM] | IC50 [2] [nM] | IC50 [3] [nM] | SMILES
10 | – | 1000 to 10000 | – | O[C@H]1CC[C@@H](Nc2cccc3nc(Nc4ccn5ccnc5c4)nn23)CC1 [compound 112, cis-4-(2-(imidazo[1,2-a]pyridin-7-ylamino)-[1,2,4]triazolo[1,5-a]pyridin-5-ylamino)cyclohexanol]
11 | – | 250 to 500 | – | FC(F)(F)c1n[nH]c2cc(Nc3nc4cccc(NC5CCOCC5)n4n3)ccc12 [compound 129]
12 | – | 0.005 to 250 | – | CNC(=O)c1ccc(Nc2nc3cccc(-c4ccc(-c5c[nH]cn5)cc4)n3n2)cc1 [compound 9, 4-(5-(4-(1H-imidazol-4-yl)phenyl)-[1,2,4]triazolo[1,5-a]pyridin-2-ylamino)-N-methylbenzamide]
13 | 1000 to 10000 | – | – | O=C(N[C@H]1CCCNC1)c1cccc2nc(Nc3ccccc3)nn12 [Example 504, (S)-2-(phenylamino)-N-(piperidin-3-yl)-[1,2,4]triazolo[1,5-a]pyridine-5-carboxamide]
14 | 250 to 500 | – | – | N[C@H]1CC[C@@H](Nc2cccc3nc(Nc4ccccc4)nn23)CC1 [Example 508, cis-N^5-(4-aminocyclohexyl)-N^2-phenyl-[1,2,4]triazolo[1,5-a]pyridine-2,5-diamine]
15 | 1000 to 10000 | – | – | O=C(c1ccccc1)c1cccc2nc(Nc3ccccc3)nn12 [Example 509, phenyl(2-(phenylamino)-[1,2,4]triazolo[1,5-a]pyridin-5-yl)methanone]
16 | 0.005 to 250 | – | – | Cn1c(=O)[nH]c2cc(Nc3nc4cccc(NC5CCOCC5)n4n3)ccc21 [Example 569, 1-methyl-5-(5-(tetrahydro-2H-pyran-4-ylamino)-[1,2,4-]triazolo[1,5-a]pyridin-2-ylamino)-1H-benzo[d]imidazol-2(3H)-one]
